Like-named read-outs stand apart in the source and are kept apart here.
Tests used:
[1] = tested on: wild-type ZIKV (Ugandan MR766 strain) in Vero cells; experiment: ZIKV cytopathic effect (CPE) inhibition qHTS assay, CellTiter-Glo readout; format: cell-based, Zika virus; conditions: for IC50: read-out: ZIKV-infection (CPE, ZIKV Antiviral Assays), IC50
[2] = tested on: caspase-3 activity induced by ZIKV in Vero cells; experiment: cells; format: cell-based; conditions: read-out: Caspase 3 (ZIKV Antiviral Assays), IC50
[3] = tested on: ZIKV-RLuc (Cambodian strain FSS13025); experiment: microbe, parasite or virus in culture; format: cell-based, Zika virus; conditions: for IC50: read-out: Rluc-ZIKV (ZIKV Antiviral Assays), IC50
[4] = tested on: ZIKV-mCherry (Cambodian strain FSS13025); experiment: microbe, parasite or virus in culture; format: cell-based, Zika virus
[5] = tested on: mCherry-ZIKV in human neuronal progenitor cells; experiment: microbe, parasite or virus in culture; format: cell-based, Zika virus
[6] = tested on: DENV (Dengue virus type 2, strain New Guinea C)
[7] = tested on: ZIKV
[8] = tested on: WNV (Kern515/WN02)
[9] = tested on: YFV (YFV 17D)
[10] = in vitro; conditions: African green monkey
[11] = in vitro; conditions: human
[12] = tested on: Vero cells
[13] = Zika virus, Vero, from Hill fit of the response curve, 50% of maximum activity response, 194 cherry-picked compounds, protocol name not given, read-out: AC50
[14] = Zika virus, Vero, potency in log units (Molar) from Hill fit of the response curve, 194 cherry-picked compounds, protocol name not given, read-out: Log AC50 (converted)
[15] = Zika virus, Vero cells, wild-type ZIKV MOI 1, 48 hr, unit inferred
[16] = difference between neutral response and maximum compound response
[17] = Zika virus, ZIKV-infected Vero cells, 48 hr, unit inferred
[18] = Zika virus, Vero, read-out: Log AC50 (M) (converted)

Compound | Efficacy [1] | CC-v2 (curve class of the dose response curve) [4] | Efficacy (difference between neutral response and maximum compound response) [4] | Max Resp (difference between neutral response and response at highest compound concentration) [4] | IC50 ([3]; Zika virus, Vero, 48 h) [µM] | AC50 ([4]; Zika virus, Vero) [M] | AC50 [4, 18] [M] | CC50 [11] [µM] | AC50 ([1]; Zika virus, Vero) [M] | IC50 ([1]; Zika virus, Vero, 48 h) [µM] | IC50 ([2]; Zika virus, Vero, 48 h) [µM] | CC50 at 48 h ([10]; Vero cells) [µM] | CC-v2 (curve class classification of the dose response curve) [1] | AC50 [1, 18] [M] | further results
CC1=C[C@H]2O[C@@H]3[C@H](O)C[C@](C)([C@@]2(CO)[C@H](O)C1=O)[C@]31CO1 [NCGC00180572-02, vomitoxin] | -38.561 | -1.1 | -87.951 | -98.582 |  |  |  |  |  |  |  |  |  |  | Log AC50 (M) [1]: -6.2862 M; Max Resp [1]: -28.893; AC50 ([1]; read-out: AC50): 5.17e-07 M; IC50 [1]: 0.52 µM; IC50 [2]: 0.74 µM; IC50 [3]: 0.74 µM; Log AC50 (M) [4]: -7.0741 M; AC50 ([4]; read-out: AC50): 8.43e-08 M; CC-v2 (curve class) [5]: -1.1; Efficacy [5]: -97.398; Log AC50 (M) [5]: -5.35 M; Max Resp [5]: -88.056; AC50 ([5]; read-out: AC50): 4.47e-06 M; IC50 ([5]; read-out: IC50 in NPC): 4.4 µM; IC50 ([5]; read-out: NPC (ZIKV Antiviral Assays), IC50): 4.47 µM; DENV active Yes/No [6]: Yes; ZIKV active Yes/No [7]: Yes; WHV active Yes/No [8]: Yes; YFV active Yes/No [9]: Yes
COc1c(C(C)C)cc2c(c1O)[C@@]1(C(=O)O)CCCC(C)(C)C1CC2 (stereo partly shown) [NCGC00169945-03] |  | -2.3 | -78.993 | -100.305 | 16.1 | 1.47e-05 | 1.47e-05 | 12.5 |  |  |  |  |  |  | AC50 [1, 13]: 1.43e-05 M; AC50 [1, 14]: 1.43e-05 M; IC50 [1, 15]: 14.3 µM; Efficacy [1, 16]: -27.847; IC50 [2, 17]: 20.4 µM; CC50 at 48 h [10]: > 50 µM
C=C(C)C1Cc2c(ccc3c2OCC(c2ccc(O)cc2O)C3)O1 (stereo not shown) [NCGC00347653-02] | -16.545 | 5 | 33.59 | -97.958 | 0.02 |  |  | > 30 | 7.18e-08 | 0.07 | 16.2 | > 50 |  |  | Curve class [1]: -3; AC50 ([1]; Zika virus, Vero, read-out: Log AC50 (converted)): 7.18e-08 M; Emax ([1]; Zika virus, Vero, read-out: Max response): -30.5%
Cc1ccc2c(c1)Cc1c(C(=O)NN3CCCCC3)nn(-c3ccc(Cl)cc3Cl)c1-2 [NCGC00167846-01] |  | -1.3 | -70.543 | -100.29 |  | 6.7e-07 | 6.7e-07 |  |  |  |  |  |  |  | CC-v2 (curve class classification v2 of the dose response curve) [3]: -1.1; Efficacy (difference between neutral response and maximum compound response) [3]: -95.949; Max Resp (difference between neutral response and compound response for highest compound concentration) [3]: -99.943; AC50 ([3]; Zika virus, Vero): 4.14e-06 M; AC50 [3, 18]: 4.14e-06 M; Antiviral activity in human NPC [5]: effectively inhibited ZIKV in NPC cells; Efficacy [5]: -97.35; Max Resp [5]: -80.167; AC50 ([5]; Zika virus, Neuronal progenitor cell): 3.98e-05 M; AC50 ([5]; Zika virus, Neuronal progenitor cell, read-out: Log AC50 (M) (converted)): 3.98e-05 M; AC50 [12]: 4.14 µM; Log AC50 (M) [12]: -5.3827 M; Activity against DENV [6]: active against both DENV and ZIKV; DENV active Yes/No [6]: Yes; SI value DENV (CC50/EC50) [6]: 16; Activity against ZIKV [7]: active against both DENV and ZIKV; SI value ZIKV (CC50/EC50) [7]: 31; ZIKV active Yes/No [7]: Yes; WHV active Yes/No [8]: No; YFV active Yes/No [9]: No
COc1cc2c(cc1OC)[C@@H]1[C@H](O)[C@@H](OC)C=C3CCN(C2)[C@H]31 [NCGC00384634-01] | -55.9 | -1.2 | -42.96 | -99.819 | 4.55 | 8.26e-07 | 8.26e-07 | > 30 | 5.7e-06 | 5.7 | 1.29 |  | -1.2 | 5.7e-06 | CC50 [10]: > 50 µM
COc1ccc([C@H]2OC[C@H]3O[C@@H](O[C@H]4[C@@H]2NC[C@@H]4O)[C@H](O)[C@H]3O)cc1 [NCGC00380307-01] | -66.527 | -1.2 | -48.259 | -100.305 | 2.28 | 1.31e-07 | 1.31e-07 | > 30 | 2.27e-05 | 22.7 | 6.46 | > 50 | -1.2 | 2.27e-05 | 
COc1ccc(C(O)C(C)OC2OC(CO)C(O)C(O)C2O)cc1 (stereo not shown) [NCGC00385130-01] | -87.993 | 4 | 0 | -28.221 | 0.001 |  |  | > 30 | 2.02e-05 | 20.2 | 0.01 | > 50 | -3 | 2.02e-05 | 
C[C@H]1CC[C@@]2(OC1)O[C@H]1CC3C4CC=C5C[C@H](O)C[C@@H](O[C@@H]6O[C@@H](C)[C@H](O)[C@@H](O)[C@H]6O[C@@H]6O[C@@H](C)[C@H](O)[C@@H](O)[C@H]6O)[C@]5(C)C4CC[C@]3(C)[C@H]1[C@@H]2C (stereo partly shown) [NCGC00380128-01, Ophiopogonin B] |  | -1.4 | -59.028 | -100.132 | 8.74 |  |  | > 30 |  |  |  |  |  |  | AC50 [1, 13]: 1.72e-05 M; AC50 [1, 14]: 1.72e-05 M; IC50 [1, 15]: 17.2 µM; CC-v2 (curve class classification of the dose response curve) ([1]; curve class v2 (Inglese et al. 2006)): -2.2; Efficacy [1, 16]: -28.987; IC50 [2, 17]: > 48 µM; CC50 at 48 h [10]: > 50 µM
CCC(C)C1NC(=O)C(C(C)=O)=C1O (stereo not shown) [NCGC00168879-02] | -73.15 | -1.2 | -63.104 | -99.611 | 12 | 2.17e-05 | 2.17e-05 | > 30 | 2.11e-05 | 21.1 | 3.82 |  | -1.2 | 2.11e-05 | CC50 [10]: > 50 µM
CN[C@H](CC(C)C)C(=O)N[C@H]1C(=O)N[C@@H](CC(N)=O)C(=O)N[C@H]2C(=O)N[C@H]3C(=O)N[C@H](C(=O)N[C@H](C(=O)O)c4cc(O)cc(O)c4-c4cc3ccc4O)[C@H](O[C@H]3C[C@](C)(N)[C@@H](O)[C@H](C)O3)c3ccc(c(Cl)c3)Oc3cc2cc(c3O[C@@H]2O[C@H](CO)[C@@H](O)[C@H](O)[C@H]2O[C@H]2C[C@](C)(NCc3ccc(-c4ccc(Cl)cc4)cc3)[C@@H](O)[C@H](C)O2)Oc2ccc(cc2Cl)[C@H]1O [NCGC00485478-01] | -25.057 | 4 | 0 | -93.894 | 12.3 |  |  | > 30 | 1.37e-05 | 13.7 | > 48 |  |  | 1.37e-05 | CC50 [10]: > 50 µM
COc1cc2c(c(OC)c1CC=C(C)C)C[C@H](c1ccc(O)c(CC=C(C)C)c1O)CO2 [NCGC00385627-01] | -25.574 | 4 | -33.338 | -100.29 | 11.5 |  |  | > 30 | 1.78e-05 | 17.8 | 16.3 | > 50 |  | 1.78e-05 | 
O=C(O)Cc1cc(I)c(Oc2ccc(O)c(I)c2)c(I)c1 [NCGC00016227-08] | -29.653 | -1.3 | -57.778 | -100.305 | 23.3 | 1.5e-05 | 1.5e-05 | > 30 | 2.91e-05 | 29.1 | > 48 |  |  | 2.91e-05 | CC50 at 48 h [10]: > 50 µM

Source: paper PMC8765781, “A platform of assays for the discovery of anti-Zika small-molecules with activity in a 3D-bioprinted outer-blood-retina model” (PLoS ONE, 2022)
